Source: patent publication EP1000623A1, “Use of epinastine as antitussivum” (Boehringer Ingelheim International GmbH, priority 1998, dated 2000)
Where a name gives a salt, the structure may show the parent alone.

Tested on: place preference
Test: Place conditioning (conditioned place preference, shuttle box)
Type: in vivo, Male ICR mice
Details: 1 mg/kg, s.c.; mean ± S.E., n=8; time in drug-paired minus saline-paired place, 900-s session
Experimental: Male ICR mice (6 weeks old; Tokyo Laboratory Animals Science Co., Ltd., Tokyo, Japan), weighing about 30 g, were used. They had free access to food and water in an animal room which was maintained at 22 ± 1°C with a 12-hour light-dark cycle. This study was carried out in accordance with the Declaration of Helsinki and/or with the guide for the care and use of laboratory animals as adopted by the committee on the care and use of laboratory animals of Hoshi University, which is accredited by the Ministry of Education, Science, Sports and Culture, Japan.
Place conditioning was conducted as previously using a minor modification of an unbaised procedure [J. Kamei et al., Eur. J. Pharmacol. 318 (1996) 251]. The apparatus used was a shuttle box (15 x 30 x 15 cm: w x 1 x h) which was divided into two compartments of equal size. […] The time spent in each compartment during a 900-s session was then measured in a blinded fashion by an infrared beam sensor (KN-80, Natume, Tokyo, Japan). […]
The potency ration was calculated according to a statistical program (Program 11 of the Pharmacological Calculations System) (8). Conditioning scores represent the time spent in the drug paired place minus the time spent in the saline-paired place, and are expressed as mean ± S.E. The Wilcoxon test was used to determine whether individual doses produced a significant conditioning (P<0.05).

NC1=NCC2c3ccccc3Cc3ccccc3N12 (stereo not shown) [epinastine, epinastine hydrochloride]
mean conditioning score: 20.3 ± 61.8 s
